Laboratory results taken from article PMC11661359, “Structure guided functional analysis of the S. cerevisiae Mre11 complex” (Research Square, 2024).
Residue numbers refer to the chain shown, from its start. In names and notes the source's numbering stands. Each block holds one molecule with its values, some of them ahead of it.

Key:
[1] = biological target: T1, S. cerevisiae Mre11-Rad50 (MR) complex (Saccharomyces cerevisiae, UniProt P12753, K192A/K195A/K196A, form not given); experiment: ATP hydrolysis, radiolabelled phosphate by thin-layer chromatography; format: biochemical; settings: 0-2 uM MR, ss and dsDNA, MgCl2, 90 min; labelled compound
T1 construct: full-length Rad50 and Mre11 (C-terminal 1xFLAG on Mre11 given for MR-EQ), purified from yeast; 2:2 complex, no Xrs2; with Double-strand break repair protein MRE11
T1 sequence (P12753 1-1312 K192A/K195A/K196A): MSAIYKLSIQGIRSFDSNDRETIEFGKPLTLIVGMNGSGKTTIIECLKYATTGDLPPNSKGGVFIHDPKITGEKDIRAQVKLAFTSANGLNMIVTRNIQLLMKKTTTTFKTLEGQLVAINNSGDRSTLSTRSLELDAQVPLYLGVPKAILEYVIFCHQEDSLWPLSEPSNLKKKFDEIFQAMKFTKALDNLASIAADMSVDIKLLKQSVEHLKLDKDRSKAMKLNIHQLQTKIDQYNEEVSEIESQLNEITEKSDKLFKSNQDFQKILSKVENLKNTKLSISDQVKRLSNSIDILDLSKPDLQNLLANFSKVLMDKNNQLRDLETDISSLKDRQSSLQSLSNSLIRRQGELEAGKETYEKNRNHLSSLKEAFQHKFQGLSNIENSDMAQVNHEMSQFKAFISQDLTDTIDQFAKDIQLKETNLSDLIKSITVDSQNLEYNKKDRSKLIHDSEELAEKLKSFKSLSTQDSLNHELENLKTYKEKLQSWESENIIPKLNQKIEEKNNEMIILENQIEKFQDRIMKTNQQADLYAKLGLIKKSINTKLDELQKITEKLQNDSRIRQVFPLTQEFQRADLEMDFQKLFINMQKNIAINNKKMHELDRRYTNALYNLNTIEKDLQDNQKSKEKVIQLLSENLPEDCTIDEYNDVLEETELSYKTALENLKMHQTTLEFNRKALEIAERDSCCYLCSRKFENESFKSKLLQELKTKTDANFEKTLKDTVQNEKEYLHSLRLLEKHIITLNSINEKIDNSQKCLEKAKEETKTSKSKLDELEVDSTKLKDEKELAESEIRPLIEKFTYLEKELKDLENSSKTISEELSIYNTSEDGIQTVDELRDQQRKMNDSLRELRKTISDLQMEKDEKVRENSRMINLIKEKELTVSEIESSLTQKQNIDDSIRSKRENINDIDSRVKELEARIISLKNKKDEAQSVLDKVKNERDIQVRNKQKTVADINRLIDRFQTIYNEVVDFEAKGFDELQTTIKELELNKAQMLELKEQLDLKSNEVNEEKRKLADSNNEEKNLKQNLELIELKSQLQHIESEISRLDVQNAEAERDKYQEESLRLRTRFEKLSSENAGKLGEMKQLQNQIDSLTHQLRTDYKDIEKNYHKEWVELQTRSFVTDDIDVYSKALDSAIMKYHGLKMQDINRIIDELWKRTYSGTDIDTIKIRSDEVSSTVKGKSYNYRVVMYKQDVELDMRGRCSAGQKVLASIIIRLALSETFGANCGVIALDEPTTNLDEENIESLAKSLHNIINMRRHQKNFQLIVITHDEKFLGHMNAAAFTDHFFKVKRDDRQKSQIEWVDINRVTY
T1 sequence (P32829 1-692 partner): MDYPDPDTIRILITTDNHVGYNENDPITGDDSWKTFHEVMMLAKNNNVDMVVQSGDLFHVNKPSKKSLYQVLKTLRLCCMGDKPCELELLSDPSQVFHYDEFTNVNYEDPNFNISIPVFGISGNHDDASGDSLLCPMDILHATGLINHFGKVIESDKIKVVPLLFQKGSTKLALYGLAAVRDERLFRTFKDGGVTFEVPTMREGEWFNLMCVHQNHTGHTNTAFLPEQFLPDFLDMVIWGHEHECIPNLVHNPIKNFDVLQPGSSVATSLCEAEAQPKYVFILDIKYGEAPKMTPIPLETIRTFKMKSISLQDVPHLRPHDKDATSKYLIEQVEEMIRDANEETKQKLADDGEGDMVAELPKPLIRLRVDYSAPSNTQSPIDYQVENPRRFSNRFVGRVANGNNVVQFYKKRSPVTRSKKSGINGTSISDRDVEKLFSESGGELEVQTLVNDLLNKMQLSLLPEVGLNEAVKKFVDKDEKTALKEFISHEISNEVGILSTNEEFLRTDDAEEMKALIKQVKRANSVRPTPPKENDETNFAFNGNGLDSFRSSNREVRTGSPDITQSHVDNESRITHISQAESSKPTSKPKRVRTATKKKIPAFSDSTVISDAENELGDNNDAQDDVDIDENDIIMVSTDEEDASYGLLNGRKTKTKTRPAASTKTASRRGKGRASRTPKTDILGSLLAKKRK

[2] = biological target: T2, S. cerevisiae Mre11-Rad50 (MR) complex (Saccharomyces cerevisiae, UniProt P12753, E1235Q, form not given); experiment: cryo-EM structure, […] Å; format: binding; settings: with 83-mer dsDNA, MgCl2 and MnCl2; ATP bound at Walker A/B interface of Rad50 dimer; hydrolysis-deficient mutant
T2 construct: full-length Rad50 and Mre11 (C-terminal 1xFLAG on Mre11 given for MR-EQ), purified from yeast; 2:2 complex, no Xrs2; with Double-strand break repair protein MRE11
T2 sequence (P12753 1-1312 E1235Q): T1 sequence (P12753 1-1312 K192A/K195A/K196A) with A192K, A195K, A196K, E1235Q
T2 sequence (P32829 1-692 partner): T1 sequence (P32829 1-692 partner)

[3] = biological target: T3, S. cerevisiae Rad50-E1235Q (R^EQ of the purified MR^EQ complex) (S. cerevisiae, UniProt P12753 1-1312, E1235 residue of Rad50 was mutated to Q); experiment: cryo-EM structure; purified MR^EQ incubated with a 83-mer dsDNA in the presence of ATP, MgCl2 and MnCl2; 3.2 Å; settings: both partners purified
T3 construct: Rad50, S. cerevisiae; residues 239-1089 (coiled coil arm and Zn hook) are said to be flexible and not traced; also called Rad50-EQ; source: S. cerevisiae, purified from yeast extracts together with Mre11-FLAG (FLAG-Agarose, Heparin-Sepharose, gel filtration)
T3 sequence: T1 sequence (P12753 1-1312 K192A/K195A/K196A) with A192K, A195K, A196K, E1235Q

Molecule: Nc1ncnc2c1ncn2[C@@H]1O[C@H](COP(=O)(O)OP(=O)(O)OP(=O)(O)O)[C@@H](O)[C@H]1O [ATP]
ATP hydrolysis, radiolabelled phosphate by thin-layer chromatography [1]: Rad50–3KA, Rad50-K60A R1201A and Rad50-R131A R1201A were as defective as the Rad50-EQ mutant | cryo-EM structure, 3.2 Å [2]: MR^EQ was incubated with a 83-mer double stranded DNA (dsDNA) in the presence of ATP

binding result [3]: binds
B1: S. cerevisiae Mre11 with a C-terminal 1xFLAG tag (Mre11 of the purified MR^EQ complex) (enzyme)
chain: T1 sequence (P32829 1-692 partner)
notes: Mre11, S. cerevisiae; residues 413-441 and 508-692 are said to be flexible and not traced; Two symmetry-related Mre11 subunits stand in the structure; also called M of MR^EQ; source: S. cerevisiae, purified from yeast extracts together with Rad50-E1235Q (FLAG-Agarose, Heparin-Sepharose, gel filtration); not shown: 1xFLAG, C-terminal, kept
